# Earlier results, collected in patent US8003690B2, “Topical nanoparticulate spironolactone formulation” (Jagotec AG, priority 2002, dated 2011).
smiles,measurement,value
CC(=O)S[C@@H]1CC2=CC(=O)CC[C@]2(C)[C@H]2CC[C@@]3(C)[C@@H](CC[C@@]34CCC(=O)O4)[C@H]12 [Spironolactone],solubility in water,2.8 mg/100 ml
